Earlier results as cited in patent US20050090549A1, “Intrathecal gabapentin for treatment of pain” (Medtronic, Inc., priority 2003, published 2005).

Conditions: in water and in both basic and acidic aqueous solutions

For `NCC1(CC(=O)O)CCCCC1` [1-(aminomethyl)cyclohexane acetic acid], the solubility is listed as “freely soluble”.
